Test results as given in patent US11040026B2, “Muscarinic M1 receptor positive allosteric modulators” (SUVEN LIFE SCIENCES LIMITED, priority 2016, dated 2021).

The compounds below were run against T1, muscarinic M1 receptor (Homo sapiens, UniProt P11229) (assay: Allosteric potency EC50 for muscarinic M1 receptor (CHO pCRE-Luc reporter assay)). Conditions: in presence of EC20 of acetylcholine; CHO cells, luciferase reporter, 4 hours.
T1 sequence (P11229 1-460): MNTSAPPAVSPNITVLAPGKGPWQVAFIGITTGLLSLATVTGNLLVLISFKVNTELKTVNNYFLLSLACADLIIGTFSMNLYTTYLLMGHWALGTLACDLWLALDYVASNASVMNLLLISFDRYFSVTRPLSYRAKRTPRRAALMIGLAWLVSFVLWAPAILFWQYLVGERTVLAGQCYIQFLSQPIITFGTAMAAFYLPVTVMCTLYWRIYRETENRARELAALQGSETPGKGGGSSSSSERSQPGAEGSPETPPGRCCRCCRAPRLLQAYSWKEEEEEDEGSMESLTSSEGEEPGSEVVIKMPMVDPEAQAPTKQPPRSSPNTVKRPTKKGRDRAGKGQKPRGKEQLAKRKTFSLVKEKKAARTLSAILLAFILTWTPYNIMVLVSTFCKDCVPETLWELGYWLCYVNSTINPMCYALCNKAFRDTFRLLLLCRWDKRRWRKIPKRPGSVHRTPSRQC
Format: cell-based
Method: Determination of Allosteric Potency EC50 Values for Muscarinic M1 Receptor:
A stable CHO cell line expressing recombinant human Muscarinic M1 receptor and pCRE-Luc reporter system was used for cell-based assay. The assay offers a non-radioactive based approach to determine binding of a compound to GPCRs. In this specific assay, the level of intracellular cyclic AMP which is modulated by activation or inhibition of the receptor is measured. The recombinant cells harbor luciferase reporter gene under the control of cyclic AMP response element.
The above cells were grown in 96 well clear bottom white plates in Hams F12 medium containing 10% fetal bovine serum (FBS). Prior to the addition of compounds or standard agonist, cells were serum starved overnight. Increasing concentrations of test compounds were added along with EC20 of acetylcholine in OptiMEM medium to the cells. The incubation was continued at 37° C. in CO2 incubator for 4 hours. Medium was removed and cells were washed with phosphate buffered saline. The cells were lysed and luciferase activity was measured in a Luminometer. Luminescence units were plotted against the compound concentrations using Graphpad software. EC50 values of the compounds were defined as the concentration required in stimulating the luciferase activity by 50% in presence of EC20 of acetylcholine and the results are provided in table 1.

Compound	EC50 [nM]
Cn1ccc2c(Cc3ccc(F)cc3)cc(C(=O)N[C@@H]3CCOC[C@H]3O)nc21 (racemic) [Example 32, Racemic trans-N-(3-Hydroxytetrahydropyran-4-yl)-4-(4-fluorobenzyl)-1-methyl-1H-pyrrolo[2,3-b]pyridine-6-carboxamide]	486
Cn1ccc2c(Cc3ccc(F)cc3)cc(C(=O)N[C@@H]3CCOC[C@@H]3O)nc21 (racemic) [Example 35, Racemic cis-N-(3-Hydroxytetrahydropyran-4-yl)-4-(4-fluorobenzyl)-1-methyl-H-pyrrolo[2,3-b]pyridine-6-carboxamide]	1470
Cn1ccc2c(Cc3ccc(-c4cscn4)cc3)cc(C(=O)NC3CCOCC3O)nc21 (racemic) [Example 53, Racemic trans-N-(3-Hydroxytetrahydropyran-4-yl)-4-[4-(thiazol-4-yl)benzyl]-1-methyl-1H-pyrrolo[2,3-b]pyridine-6-carboxamide]	31
Cn1cc(-c2ccc(Cc3cc(C(=O)NC4CCOCC4O)nc4c3ccn4C)cc2)cn1 (racemic) [Example 56, Racemic trans-N-(3-Hydroxytetrahydropyran-4-yl)-4-[4-(1-methyl-1H-pyrazol-4-yl)benzyl]-1-methyl-1H-pyrrolo[2,3-b]pyridine-6-carboxamide]	38
Cn1ccc2c(Cc3ccnc(F)c3)cc(C(=O)NC3CCOCC3O)nc21 (single isomer, unassigned) [Example 38, Racemic trans-N-(3-Hydroxytetrahydropyran-4-yl)-4-(2-fluoropyridin-4-ylmethyl)-1-methyl-1H-pyrrolo[2,3-b]pyridine-6-carboxamide]	983
Cn1ccc2c(Cc3ccnc(F)c3)cc(C(=O)NC3CCOCC3O)nc21 (single isomer, unassigned) [Example 45, Racemic cis-N-(3-Hydroxytetrahydropyran-4-yl)-4-(2-fluoropyridin-4-ylmethyl)-1-methyl-1H-pyrrolo[2,3-b]pyridine-6-carboxamide]	3150
O=C(N[C@@H]1CCOC[C@H]1O)c1cc(Cc2ccc(F)cc2)c2c(n1)OCCO2 (single isomer, unassigned) [Example 113, trans-N-(3-Hydroxytetrahydropyran-4-yl)-8-(4-fluorobenzyl)-2,3-dihydro-[1,4]dioxino[2,3-b]pyridine-6-carboxamide (Isomer-IT)]	136
Cn1ccc2c(Cc3ccc(Cl)nc3)cc(C(=O)N[C@H]3CCOC[C@H]3O)nc21 (single isomer, unassigned; isomer-i) [Example 49, cis-N-(3-Hydroxytetrahydropyran-4-yl)-4-(2-chloropyridin-5-ylmethyl)-1-methyl-1H-pyrrolo[2,3-b]pyridine-6-carboxamide (Isomer-I)]	1410
Cn1ccc2c(Cc3ccc(-c4cscn4)cc3)cc(C(=O)N[C@@H]3CCOC[C@H]3O)nc21 (single isomer, unassigned; isomer-i) [Example 54, trans-N-(3-Hydroxytetrahydropyran-4-yl)-4-[4-(thiazol-4-yl)benzyl]-1-methyl-1H-pyrrolo[2,3-b]pyridine-6-carboxamide (Isomer-I)]	764
Cn1ccc2c(Cc3ccc(Cl)nc3)cc(C(=O)N[C@H]3CCOC[C@H]3O)nc21 (single isomer, unassigned; isomer-ii) [Example 50, cis-N-(3-Hydroxytetrahydropyran-4-yl)-4-(2-chloropyridin-5-ylmethyl)-1-methyl-1H-pyrrolo[2,3-b]pyridine-6-carboxamide (Isomer-II)]	2920

Results, then the compound that gave them:

EC50 [nM]	Compound
3170	Cn1ccc2c(Cc3ccc(F)cc3)cc(C(=O)N[C@H]3CCOC[C@H]3O)nc21 (single isomer, unassigned; isomer-i) [Example 36, cis-N-(3-Hydroxytetrahydropyran-4-yl)-4-(4-fluorobenzyl)-1-methyl-1H-pyrrolo[2,3-b]pyridine-6-carboxamide (Isomer-I)]
968	Cn1ccc2c(Cc3ccnc(F)c3)cc(C(=O)N[C@@H]3CCOC[C@H]3O)nc21 (single isomer, unassigned; isomer-i) [Example 39, trans-N-(3-Hydroxytetrahydropyran-4-yl)-4-(2-fluoropyridin-4-ylmethyl)-1-methyl-1H-pyrrolo[2,3-b]pyridine-6-carboxamide (Isomer-I)]
1230	Cn1ccc2c(Cc3ccc(F)c(F)c3)cc(C(=O)N[C@H]3CCOC[C@H]3O)nc21 (single isomer, unassigned; isomer-i) [Example 41, cis-N-(3-Hydroxytetrahydropyran-4-yl)-4-(3,4-difluorobenzyl)-1-methyl-1H-pyrrolo[2,3-b]pyridine-6-carboxamide (Isomer-I)]
2530	Cn1ccc2c(Cc3cccc(F)c3F)cc(C(=O)N[C@@H]3CCOC[C@H]3O)nc21 (single isomer, unassigned; isomer-i) [Example 43, trans-N-(3-Hydroxytetrahydropyran-4-yl)-4-(2,3-difluorobenzyl)-1-methyl-1H-pyrrolo[2,3-b]pyridine-6-carboxamide (Isomer-I)]
2960	Cn1ccc2c(Cc3ccnc(F)c3)cc(C(=O)N[C@H]3CCOC[C@H]3O)nc21 (single isomer, unassigned; isomer-i) [Example 46, cis-N-(3-Hydroxytetrahydropyran-4-yl)-4-(2-fluoropyridin-4-ylmethyl)-1-methyl-1H-pyrrolo[2,3-b]pyridine-6-carboxamide (Isomer-I)]
1820	Cn1ccc2c(Cc3ccc(F)c(F)c3)cc(C(=O)N[C@@H]3CCOC[C@H]3O)nc21 (single isomer, unassigned; isomer-i) [Example 51, trans-N-(3-Hydroxytetrahydropyran-4-yl)-4-(3,4-difluorobenzyl)-1-methyl-1H-pyrrolo[2,3-b]pyridine-6-carboxamide (Isomer-I)]
1250	Cn1ccc2c(Cc3ccc(F)cc3)cc(C(=O)N[C@H]3CCOC[C@H]3O)nc21 (single isomer, unassigned; isomer-ii) [Example 37, cis-N-(3-Hydroxytetrahydropyran-4-yl)-4-(4-fluorobenzyl)-1-methyl-1H-pyrrolo[2,3-b]pyridine-6-carboxamide (Isomer-II)]
755	Cn1ccc2c(Cc3ccnc(F)c3)cc(C(=O)N[C@@H]3CCOC[C@H]3O)nc21 (single isomer, unassigned; isomer-ii) [Example 40, trans-N-(3-Hydroxytetrahydropyran-4-yl)-4-(2-fluoropyridin-4-ylmethyl)-1-methyl-1H-pyrrolo[2,3-b]pyridine-6-carboxamide (Isomer-II)]
2290	Cn1ccc2c(Cc3ccc(F)c(F)c3)cc(C(=O)N[C@H]3CCOC[C@H]3O)nc21 (single isomer, unassigned; isomer-ii) [Example 42, cis-N-(3-Hydroxytetrahydropyran-4-yl)-4-(3,4-difluorobenzyl)-1-methyl-1H-pyrrolo[2,3-b]pyridine-6-carboxamide (Isomer-II)]
748	Cn1ccc2c(Cc3cccc(F)c3F)cc(C(=O)N[C@@H]3CCOC[C@H]3O)nc21 (single isomer, unassigned; isomer-ii) [Example 44, trans-N-(3-Hydroxytetrahydropyran-4-yl)-4-(2,3-difluorobenzyl)-1-methyl-1H-pyrrolo[2,3-b]pyridine-6-carboxamide (Isomer-II)]
